Reference: BindingDB's records for doi:10.1021/jm020871e (University of Bonn, 2002)

Target: Muscarinic acetylcholine receptor M2 (Sus scrofa) (UniProt P06199)
Test: Binding of [3H]N-methylscopolamine at porcine heart Muscarinic acetylcholine receptor M2 that inhibits the dissociation of [3H]NMS half maximally (pEC50diss) was reported

Chain of Muscarinic acetylcholine receptor M2 (Sus scrofa) (P06199 whole entry, looked up): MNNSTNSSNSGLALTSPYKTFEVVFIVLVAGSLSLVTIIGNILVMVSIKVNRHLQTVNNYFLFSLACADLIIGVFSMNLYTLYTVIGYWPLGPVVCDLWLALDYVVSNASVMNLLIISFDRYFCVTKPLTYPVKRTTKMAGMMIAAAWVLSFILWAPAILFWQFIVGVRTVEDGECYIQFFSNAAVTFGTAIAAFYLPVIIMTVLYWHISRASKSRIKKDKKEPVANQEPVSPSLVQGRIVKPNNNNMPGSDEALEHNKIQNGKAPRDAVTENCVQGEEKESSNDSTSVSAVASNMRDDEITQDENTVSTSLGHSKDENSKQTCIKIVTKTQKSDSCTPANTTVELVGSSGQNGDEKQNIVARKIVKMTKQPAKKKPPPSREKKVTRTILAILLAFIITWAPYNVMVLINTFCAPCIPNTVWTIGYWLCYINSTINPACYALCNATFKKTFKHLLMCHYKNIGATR

Question: For `Cc1ccc2c(c1)C(=O)N(CCC[N+](C)(C)CCCCCC[N+](C)(C)CC(C)(C)CN1C(=O)c3ccccc3C1=O)C2=O`, which EC50 is on record?
Answer: The EC50 was 71 nM.

Question: How did the EC50 turn out when `CC(C)(CN1C(=O)c2ccccc2C1=O)C[N+](C)(C)CCCCCC[N+](C)(C)CC(C)(C)CN1C(=O)c2ccccc2C1=O` was run?
Answer: The EC50 was 178 nM.

Question: For `CC(C)(CN1C(=O)c2ccccc2C1=O)C[N+](C)(C)CCCCCC[N+](C)(C)CCCN1C(=O)c2ccccc2C1=O`, which EC50 is on record?
Answer: Its EC50 is 135 nM.

Question: Which EC50 does the source give for `Cc1ccc2c(c1)C(=O)N(CC(C)(C)C[N+](C)(C)CCCCCC[N+](C)(C)CCCN1C(=O)c3ccccc3C1=O)C2=O` here?
Answer: The EC50 was 55 nM.

Question: `Cc1ccc2c(c1)C(=O)N(CCC[N+](C)(C)CCCCCC[N+](C)(C)CC(C)(C)CN1C(=O)c3ccc(C)cc3C1=O)C2=O` was tested. Which EC50 did it give?
Answer: The EC50 was 36 nM.

Question: `Cc1ccc2c(c1)C(=O)N(CCC[N+](C)(C)CCCCCC[N+](C)(C)CCCN1C(=O)c3ccccc3C1=O)C2=O` was tested. Which EC50 did it give?
Answer: The EC50 was 324 nM.

Question: With `Cc1ccc2c(c1)C(=O)N(CCC[N+](C)(C)CCCCCC[N+](C)(C)CCCN1C(=O)c3ccc(C)cc3C1=O)C2=O` as the compound, how does the EC50 read?
Answer: The EC50 was 170 nM.

Question: Which EC50 does the source give for `Cc1ccc2c(c1)C(=O)N(CC(C)(C)C[N+](C)(C)CCCCCC[N+](C)(C)CC(C)(C)CN1C(=O)c3ccc(C)cc3C1=O)C2=O` here?
Answer: The EC50 was 47 nM.
